# Data published in patent US4599352A, “Antineoplastic platinum (IV) complexes and compositions” (priority 1984, dated 1986).
# What was measured:
# [1] = system: SC Implanted L1210 Leukemia; assay: Activity against SC implanted L1210 leukemia following intravenous administration, once daily Days 1-5 (Table 5); type: in vivo, CD2Fl male mice; settings: IV once daily Days 1-5
# Protocol: (§1) Biological properties of the compounds of the present invention were determined following the protocol described in Cancer Chemotherapy Reports, Vol. 3, No. 3, 1972 which report is incorporated herein by reference.
# In another type of experiment the same platinum complexes were directly compared against the SC implanted L1210 following intravenous administration (Table 5).
# This experiment (A8-00004 3LE32) was conducted at the Southern Research Institute, Birmingham, Ala. under the supervision of Dr. Daniel Griswold. The protocols were the same as those published previously (Attachment 11). 10^6 cells were implanted subcutaneously in CD2Fl male mice on Day 0. Drug treatments were given intravenously once daily at the doses indicated on Days 1-5 after tumor implantation. The dosage range tested included the highest and lowest doses indicated in the Table as well as intermediate values which were determined by multiplying each dose in turn by 0.5 starting with the highest dose. The diluent was saline except for NSC-271674 for which 5% sodium bicarbonate was used. All drugs were prepared fresh on the day of injection, and all were administered in solution. Median survival times for both control and drug-treated mice were determined and expressed as a percentage (% T/C). Body weights were determined on Day 5 and expressed as a weight difference (body weight of the drug-treated animals minus that of the control animals in grams) (T-C).
# IP L1210 leukemia = assay: Mouse optimal (highest tolerated) dose, IP L1210 leukemia, Days 1, 5 and 9 schedule (Table 7); type: in vivo
# From the text: *IP L1210 leukemia, Days 1, 5 and 9 schedule. Highest tolerated dose in a
# least 2 of 3 experiments (i.e,. animal weight difference (testcontrol)
# [2] = system: IP-Implanted L1210 Leukemia; assay: Dose-response against IP-implanted L1210 leukemia, IP treatment Days 1, 5 and 9, 30-day test (Table 2); type: in vivo, CD2Fl male mice
# Protocol: as §1
# (§2) This experiment (A8-00005 3LE31) was conducted at the Southern Research Institute, Birmingham, Ala. under the supervision of Dr. Daniel Griswold. The protocols were the same as those published previously (Geran et al., Cancer Chemotherapy Reports 3: No. 2, 1972 [Attachment 11]). 10^5 cells were implanted intraperitoneally in CD2Fl male mice on Day 0. Drug treatments were given intraperitoneally as single injections at the doses indicated on Days 1, 5 and 9 after tumor implantation. The diluent was saline except for NSC-271674 where 5% sodium bicarbonate was used. All drugs were prepared fresh on the day of injection, and all were administered in solution. Median survival times for both control and drug-treated mice were determined and expressed as a percentage (% T/C). Body weights were determined on Day 5 and expressed as a weight difference (body weight of the drug-treated animals minus that of the control animals in grams) (T-C). The diluent control animals lived a median of 8.4 days and gained 1.9 grams by Day 5 in this experiment. All animals, including Day 30 survivors, were used in the calculation of median survival times. The log10 change in tumor burden refers to the net log change in viable tumor cell population at the end of therapy (Rx) as compared to the start of therapy; e.g., a […] means that there was a […] and a 3 log change means there was a 1000-fold increase in tumor burden at the end of therapy. The tumor burden at the start of therapy was about 6.1×10^5 cells in this experiment.
# [3] = system: IP-Implanted L1210/Cisplatin; assay: Comparison of isomers: long term survivors and weight differences in treating IP-implanted L1210/Cisplatin (Table 6); type: in vivo, mice
# From the text: Comparative data for the others are as follows: 27 for trans d, 27 for trans d l and 13 for cis. […] The higher the ratio the more convenient it is to prepare a formulation for intravenous administration to patients which is shown in Table 7.
# IP L1210 = assay: Activity against IP-implanted L1210 leukemia sensitive to cisplatin, 30 day test (Table 3); type: in vivo, Female CD2Fl mice
# Protocol: as §1
# Other known mechanisms of resistance for other classes of agents, such as gene amplification or target enzyme change or amplication, also need to be explored. The experiments summarized in Table 3 were conducted at the same time against both sublines using the same drug preparations. […] These experiments were repeated in a second laboratory as documented in Table 4. However, in these experiments the animals were held for 60 rather than 30 days to evaluate whether or not long-term survivors are produced after drug treatment in a more challenging setting.
# as §2
# These experiments (A8-00008 3LE31 and A8-00001 3DP31) were conducted concurrently at the Southern Research Institute, Birmingham, Ala. under the supervision of Dr. Daniel Griswold. See Table 4 for experimental details. The diluent control animals bearing L1210 leukemia lived a median of 8.6 days and gained 1.3 grams by Day 5. […] Female CD2Fl mice were used for these experiments.
# [4] = system: L1210 and L1210/Cisplatin leukemia; assay: Total number of long-term survivors in Tables 2-4; type: in vivo, CD2Fl mice; settings: Tables 2-4 summed
# From the text: If one summarizes the data in Tables 2-4 by totalling the number of long-term survivors, unexpected differences among the isomers become apparent. For example, the trans l compound produced 30 long-term survivors.
compound,measurement,setting,value
"[Cl][Pt-2]1([Cl])([Cl])([Cl])[NH2+][C@@H]2CCCC[C@H]2[NH2+]1 [trans (l), (1R,2R)-Tetrachloro-trans-1,2-cyclohexanediammine platinum (IV)]",Optimal Dose,[1],2.5 mg/kg/inj
same,Mouse Optimal Dose (highest tolerated dose in at least 2 of 3 experiments),IP L1210 leukemia,8 mg/kg
same,30-Day Survivors/Total,[2]; 1 mg/kg/dose IP,0/6
same,Approx. Log10 Change in Tumor Burden at End of Rx,[2]; 1 mg/kg/dose IP,~2.7 log10
same,Body Weight Difference,[2]; 1 mg/kg/dose IP,-0.4 Grams
same,Median % T/C,[2]; 1 mg/kg/dose IP,134%
same,30-Day Survivors/Total,[2]; 2 mg/kg/dose IP,0/6
same,Approx. Log10 Change in Tumor Burden at End of Rx,[2]; 2 mg/kg/dose IP,~1.7 log10
same,Body Weight Difference,[2]; 2 mg/kg/dose IP,-0.9 Grams
same,Median % T/C,[2]; 2 mg/kg/dose IP,170%
same,30-Day Survivors/Total,[2]; 4 mg/kg/dose IP,2/6
same,Approx. Log10 Change in Tumor Burden at End of Rx,[2]; 4 mg/kg/dose IP,~-2.8 log10
same,Body Weight Difference,[2]; 4 mg/kg/dose IP,-1.2 Grams
same,Median % T/C,[2]; 4 mg/kg/dose IP,238%
same,30-Day Survivors/Total,[2]; 8 mg/kg/dose IP,1/6
same,Approx. Log10 Change in Tumor Burden at End of Rx,[2]; 8 mg/kg/dose IP,~-5.7 log10
same,Body Weight Difference,[2]; 8 mg/kg/dose IP,-2.5 Grams
same,Median % T/C,[2]; 8 mg/kg/dose IP,319%
same,Body Weight Difference,"[2]; 8 mg/kg/dose IP, listed as trans l",less than -4 Grams
same,30-Day Survivors/Total,[2]; 16 mg/kg/dose IP,0/6
same,Approx. Log10 Change in Tumor Burden at End of Rx,[2]; 16 mg/kg/dose IP,~3.0 log10
same,Body Weight Difference,[2]; 16 mg/kg/dose IP,-3.5 Grams
same,Median % T/C,[2]; 16 mg/kg/dose IP,119%
same,Optimal dose (dose producing best therapeutic response),"[2]; day 1, 5 and 9 schedule",8 mg/kg/injection
same,Total Grams of Weight Difference,[3],-6.0 Grams
same,Total number of long-term survivors,[3],17
same,30 Day Survivors/Total,IP L1210; 1 mg/kg/dose,0/6
same,Approx. Log10 Change in Tumor Burden at End of RX,IP L1210; 1 mg/kg/dose,~2.5 log10
same,Median % T/C,IP L1210; 1 mg/kg/dose,143%
same,30 Day Survivors/Total,IP L1210; 2 mg/kg/dose,1/6
same,Approx. Log10 Change in Tumor Burden at End of RX,IP L1210; 2 mg/kg/dose,~-0.4 log10
same,Median % T/C,IP L1210; 2 mg/kg/dose,197%
same,30 Day Survivors/Total,IP L1210; 4 mg/kg/dose,2/6
same,Approx. Log10 Change in Tumor Burden at End of RX,IP L1210; 4 mg/kg/dose,~-5.9 log10
same,Median % T/C,IP L1210; 4 mg/kg/dose,313%
same,30 Day Survivors/Total,IP L1210; 8 mg/kg/dose,4/6
same,Approx. Log10 Change in Tumor Burden at End of RX,IP L1210; 8 mg/kg/dose,~-5.9 log10
same,Median % T/C,IP L1210; 8 mg/kg/dose,348%
same,30 Day Survivors/Total,IP L1210; 16 mg/kg/dose,0/6
same,Median % T/C,IP L1210; 16 mg/kg/dose,93%
same,Total number of long-term survivors,[4],30
